ChEMBL document CHEMBL5653615 (J Biol Chem, 2013)

Assays:
[1] = biological target: Serine/threonine-protein kinase MRCK beta (Homo sapiens) (UniProt Q9Y5S2); assay: Inhibition of human CDC42BPB at 1.82 nM by HotSpot assay relative to control
[2] = biological target: CDK9/cyclin T1 (Homo sapiens) (UniProt O60563+P50750); assay: Inhibition of human CDK9/cyclin T1 at 1.82 nM by HotSpot assay relative to control; format: protein-complex assay
[3] = biological target: Protein kinase C alpha type (Homo sapiens) (UniProt P17252); assay: Inhibition of human PKCa at 1.82 nM by HotSpot assay relative to control
[4] = biological target: Ribosomal protein S6 kinase alpha-4 (Homo sapiens) (UniProt O75676); assay: Inhibition of human RPS6KA4 at 1.82 nM by HotSpot assay relative to control
[5] = biological target: cAMP-dependent protein kinase (PKA) (Homo sapiens) (UniProt P22694+P17612+P22612); assay: Inhibition of human PKA at 18.6 nM by HotSpot assay relative to control; format: protein assay
[6] = biological target: Serine/threonine-protein kinase N1 (Homo sapiens) (UniProt Q16512); assay: Inhibition of human PRK1 at 18.6 nM by HotSpot assay relative to control
[7] = biological target: Proto-oncogene tyrosine-protein kinase ROS (Homo sapiens) (UniProt P08922); assay: Inhibition of human ROS1 at 18.6 nM by HotSpot assay relative to control
[8] = biological target: Serine/threonine-protein kinase PLK1 (Homo sapiens) (UniProt P53350); assay: Inhibition of human PLK1 at 18.6 nM by HotSpot assay relative to control
[9] = biological target: T1, Serine/threonine-protein kinase VRK1 (Homo sapiens) (UniProt Q99986); assay: Inhibition of human VRK1 at 18.6 nM by HotSpot assay relative to control
T1 sequence (whole entry): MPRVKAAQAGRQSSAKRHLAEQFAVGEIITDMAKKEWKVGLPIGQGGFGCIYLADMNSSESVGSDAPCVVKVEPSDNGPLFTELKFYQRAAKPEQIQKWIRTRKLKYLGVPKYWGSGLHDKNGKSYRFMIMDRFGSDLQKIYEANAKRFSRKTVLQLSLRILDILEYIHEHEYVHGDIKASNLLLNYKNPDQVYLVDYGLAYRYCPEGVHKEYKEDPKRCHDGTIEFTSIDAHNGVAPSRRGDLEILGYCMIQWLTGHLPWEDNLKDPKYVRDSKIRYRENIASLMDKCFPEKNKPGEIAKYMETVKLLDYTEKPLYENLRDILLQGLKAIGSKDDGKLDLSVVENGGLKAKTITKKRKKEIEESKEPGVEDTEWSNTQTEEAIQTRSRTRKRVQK

[10] = biological target: Tyrosine-protein kinase CSK (Homo sapiens) (UniProt P41240); assay: Inhibition of human CSK at 18.6 nM by HotSpot assay relative to control
[11] = biological target: Tyrosine-protein kinase ABL2 (Homo sapiens) (UniProt P42684); assay: Inhibition of human ABL2 at 18.6 nM by HotSpot assay relative to control
[12] = biological target: Homeodomain-interacting protein kinase 2 (Homo sapiens) (UniProt Q9H2X6); assay: Inhibition of human HIPK2 at 18.6 nM by HotSpot assay relative to control
[13] = biological target: Tyrosine-protein kinase HCK (Homo sapiens) (UniProt P08631); assay: Inhibition of human HCK at 18.6 nM by HotSpot assay relative to control
[14] = biological target: Tyrosine-protein kinase Fes/Fps (Homo sapiens) (UniProt P07332); assay: Inhibition of human FES at 18.6 nM by HotSpot assay relative to control
[15] = biological target: Calcium/calmodulin-dependent protein kinase kinase 2 (Homo sapiens) (UniProt Q96RR4); assay: Inhibition of human CAMKK2 at 18.6 nM by HotSpot assay relative to control
[16] = biological target: MAP/microtubule affinity-regulating kinase 3 (Homo sapiens) (UniProt P27448); assay: Inhibition of human MARK3 at 18.6 nM by HotSpot assay relative to control
[17] = biological target: T2, Inhibitor of nuclear factor kappa-B kinase subunit beta (Homo sapiens) (UniProt O14920); assay: Inhibition of human IKKb at 18.6 nM by HotSpot assay relative to control
T2 sequence (whole entry): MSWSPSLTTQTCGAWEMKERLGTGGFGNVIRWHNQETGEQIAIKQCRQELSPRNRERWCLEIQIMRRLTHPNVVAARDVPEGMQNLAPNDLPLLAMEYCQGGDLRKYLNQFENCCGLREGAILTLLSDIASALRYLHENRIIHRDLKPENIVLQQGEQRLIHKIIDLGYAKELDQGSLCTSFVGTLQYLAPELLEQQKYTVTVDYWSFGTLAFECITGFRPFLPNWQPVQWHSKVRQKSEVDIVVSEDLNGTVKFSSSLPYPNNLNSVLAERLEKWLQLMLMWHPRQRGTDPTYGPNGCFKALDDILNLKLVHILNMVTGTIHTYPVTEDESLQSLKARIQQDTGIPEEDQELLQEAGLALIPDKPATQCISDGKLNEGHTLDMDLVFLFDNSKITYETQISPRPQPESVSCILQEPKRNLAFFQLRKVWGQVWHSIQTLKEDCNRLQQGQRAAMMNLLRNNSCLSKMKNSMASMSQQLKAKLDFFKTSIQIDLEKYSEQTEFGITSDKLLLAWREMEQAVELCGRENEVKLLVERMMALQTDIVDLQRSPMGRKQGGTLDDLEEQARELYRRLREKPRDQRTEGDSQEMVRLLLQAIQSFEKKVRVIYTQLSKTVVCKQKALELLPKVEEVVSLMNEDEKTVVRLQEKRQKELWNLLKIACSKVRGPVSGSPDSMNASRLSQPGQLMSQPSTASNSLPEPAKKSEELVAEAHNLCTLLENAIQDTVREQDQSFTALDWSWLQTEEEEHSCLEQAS

[18] = biological target: T3, Serine/threonine-protein kinase Nek3 (Homo sapiens) (UniProt P51956); assay: Inhibition of human NEK3 at 18.6 nM by HotSpot assay relative to control
T3 sequence (whole entry): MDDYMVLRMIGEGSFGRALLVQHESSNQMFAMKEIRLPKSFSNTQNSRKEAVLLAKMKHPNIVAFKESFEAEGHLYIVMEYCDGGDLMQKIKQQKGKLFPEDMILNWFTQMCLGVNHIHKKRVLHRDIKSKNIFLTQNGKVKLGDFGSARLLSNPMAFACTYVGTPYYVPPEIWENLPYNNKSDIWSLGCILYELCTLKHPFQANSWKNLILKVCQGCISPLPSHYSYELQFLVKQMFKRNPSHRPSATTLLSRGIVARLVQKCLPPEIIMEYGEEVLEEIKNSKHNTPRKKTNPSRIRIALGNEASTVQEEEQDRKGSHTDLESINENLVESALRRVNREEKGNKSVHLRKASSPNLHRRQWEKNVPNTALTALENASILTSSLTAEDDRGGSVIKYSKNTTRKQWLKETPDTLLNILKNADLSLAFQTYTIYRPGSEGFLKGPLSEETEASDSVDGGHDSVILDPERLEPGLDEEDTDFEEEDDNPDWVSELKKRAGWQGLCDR

Chain of Proto-oncogene tyrosine-protein kinase ROS (Homo sapiens) (P08922 whole entry): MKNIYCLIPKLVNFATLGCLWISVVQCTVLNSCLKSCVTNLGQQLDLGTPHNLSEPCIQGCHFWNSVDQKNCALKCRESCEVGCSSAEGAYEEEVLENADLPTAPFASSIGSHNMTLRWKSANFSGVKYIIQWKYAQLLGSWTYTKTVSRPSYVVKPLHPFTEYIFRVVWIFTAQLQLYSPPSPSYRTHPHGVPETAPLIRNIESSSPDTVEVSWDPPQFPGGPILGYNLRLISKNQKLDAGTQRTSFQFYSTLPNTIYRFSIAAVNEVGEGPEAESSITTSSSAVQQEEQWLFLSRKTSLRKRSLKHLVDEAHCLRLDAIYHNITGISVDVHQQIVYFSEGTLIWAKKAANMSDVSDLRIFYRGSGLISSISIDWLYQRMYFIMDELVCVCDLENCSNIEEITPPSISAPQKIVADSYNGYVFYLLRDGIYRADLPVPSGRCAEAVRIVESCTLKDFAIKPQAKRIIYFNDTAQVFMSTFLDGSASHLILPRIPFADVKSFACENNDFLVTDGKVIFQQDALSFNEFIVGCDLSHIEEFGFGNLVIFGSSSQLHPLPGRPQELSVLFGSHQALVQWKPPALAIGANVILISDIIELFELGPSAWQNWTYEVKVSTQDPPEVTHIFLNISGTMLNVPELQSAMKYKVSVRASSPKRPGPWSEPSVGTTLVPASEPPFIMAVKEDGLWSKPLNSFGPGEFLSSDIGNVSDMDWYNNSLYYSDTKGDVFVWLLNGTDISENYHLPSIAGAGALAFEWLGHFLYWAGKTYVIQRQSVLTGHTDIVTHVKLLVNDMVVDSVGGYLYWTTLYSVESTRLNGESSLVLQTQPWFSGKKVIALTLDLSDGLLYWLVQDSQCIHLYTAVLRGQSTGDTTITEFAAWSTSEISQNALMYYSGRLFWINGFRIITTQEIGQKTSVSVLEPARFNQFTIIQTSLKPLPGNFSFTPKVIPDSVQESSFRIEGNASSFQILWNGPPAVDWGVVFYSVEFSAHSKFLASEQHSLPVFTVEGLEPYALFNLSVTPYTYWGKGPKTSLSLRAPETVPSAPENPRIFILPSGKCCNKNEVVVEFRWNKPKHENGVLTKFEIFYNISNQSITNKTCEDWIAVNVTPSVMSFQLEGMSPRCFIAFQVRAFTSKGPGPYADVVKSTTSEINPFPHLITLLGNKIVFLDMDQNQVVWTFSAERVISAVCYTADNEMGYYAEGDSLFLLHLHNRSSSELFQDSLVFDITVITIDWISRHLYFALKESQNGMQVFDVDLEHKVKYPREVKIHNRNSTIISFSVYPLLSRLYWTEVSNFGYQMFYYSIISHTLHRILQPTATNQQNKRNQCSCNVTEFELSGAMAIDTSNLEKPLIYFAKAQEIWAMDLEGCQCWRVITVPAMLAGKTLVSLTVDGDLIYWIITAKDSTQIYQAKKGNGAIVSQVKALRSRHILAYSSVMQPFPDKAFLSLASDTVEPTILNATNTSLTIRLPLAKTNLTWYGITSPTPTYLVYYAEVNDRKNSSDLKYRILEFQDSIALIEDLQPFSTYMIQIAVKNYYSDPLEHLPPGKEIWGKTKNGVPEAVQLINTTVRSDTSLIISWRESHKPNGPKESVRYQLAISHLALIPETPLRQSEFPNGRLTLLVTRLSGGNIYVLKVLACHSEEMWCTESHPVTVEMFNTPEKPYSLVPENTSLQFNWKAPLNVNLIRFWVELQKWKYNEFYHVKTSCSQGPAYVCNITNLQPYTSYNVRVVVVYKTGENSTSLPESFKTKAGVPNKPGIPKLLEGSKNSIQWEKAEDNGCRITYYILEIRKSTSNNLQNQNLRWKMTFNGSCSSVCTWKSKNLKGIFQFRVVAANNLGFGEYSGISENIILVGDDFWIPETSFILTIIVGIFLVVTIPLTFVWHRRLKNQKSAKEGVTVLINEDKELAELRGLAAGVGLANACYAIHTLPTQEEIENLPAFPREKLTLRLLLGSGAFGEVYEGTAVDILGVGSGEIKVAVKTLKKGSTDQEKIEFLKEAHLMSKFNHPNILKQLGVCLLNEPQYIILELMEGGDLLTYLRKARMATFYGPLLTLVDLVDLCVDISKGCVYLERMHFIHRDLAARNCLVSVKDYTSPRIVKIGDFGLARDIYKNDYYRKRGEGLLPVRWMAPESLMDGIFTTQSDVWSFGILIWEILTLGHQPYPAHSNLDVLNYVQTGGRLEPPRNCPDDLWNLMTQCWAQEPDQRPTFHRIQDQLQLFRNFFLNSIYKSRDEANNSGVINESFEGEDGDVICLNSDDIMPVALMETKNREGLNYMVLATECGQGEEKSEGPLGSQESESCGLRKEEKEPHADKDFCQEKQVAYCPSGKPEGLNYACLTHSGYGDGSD
Chain of MAP/microtubule affinity-regulating kinase 3 (Homo sapiens) (P27448 whole entry, looked up): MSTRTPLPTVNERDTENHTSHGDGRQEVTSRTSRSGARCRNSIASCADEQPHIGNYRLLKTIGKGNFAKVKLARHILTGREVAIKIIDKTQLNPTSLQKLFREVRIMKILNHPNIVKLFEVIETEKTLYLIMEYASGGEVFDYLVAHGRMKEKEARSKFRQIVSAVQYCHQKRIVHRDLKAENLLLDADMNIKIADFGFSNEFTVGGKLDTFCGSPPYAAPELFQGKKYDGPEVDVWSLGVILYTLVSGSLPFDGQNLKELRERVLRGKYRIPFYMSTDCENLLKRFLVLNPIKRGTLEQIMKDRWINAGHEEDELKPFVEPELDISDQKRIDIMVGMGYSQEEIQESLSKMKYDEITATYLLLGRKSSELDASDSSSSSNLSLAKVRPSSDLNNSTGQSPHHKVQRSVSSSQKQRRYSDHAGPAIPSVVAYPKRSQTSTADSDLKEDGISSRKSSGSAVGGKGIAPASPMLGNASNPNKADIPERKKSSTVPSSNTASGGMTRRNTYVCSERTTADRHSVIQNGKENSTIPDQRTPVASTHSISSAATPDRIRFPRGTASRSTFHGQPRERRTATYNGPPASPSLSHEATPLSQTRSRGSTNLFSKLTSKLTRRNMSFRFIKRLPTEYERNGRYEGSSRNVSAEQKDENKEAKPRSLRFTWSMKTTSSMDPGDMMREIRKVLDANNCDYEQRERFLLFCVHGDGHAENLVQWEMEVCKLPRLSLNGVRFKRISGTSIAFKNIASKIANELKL
Chain of Ribosomal protein S6 kinase alpha-4 (Homo sapiens) (O75676 whole entry, looked up): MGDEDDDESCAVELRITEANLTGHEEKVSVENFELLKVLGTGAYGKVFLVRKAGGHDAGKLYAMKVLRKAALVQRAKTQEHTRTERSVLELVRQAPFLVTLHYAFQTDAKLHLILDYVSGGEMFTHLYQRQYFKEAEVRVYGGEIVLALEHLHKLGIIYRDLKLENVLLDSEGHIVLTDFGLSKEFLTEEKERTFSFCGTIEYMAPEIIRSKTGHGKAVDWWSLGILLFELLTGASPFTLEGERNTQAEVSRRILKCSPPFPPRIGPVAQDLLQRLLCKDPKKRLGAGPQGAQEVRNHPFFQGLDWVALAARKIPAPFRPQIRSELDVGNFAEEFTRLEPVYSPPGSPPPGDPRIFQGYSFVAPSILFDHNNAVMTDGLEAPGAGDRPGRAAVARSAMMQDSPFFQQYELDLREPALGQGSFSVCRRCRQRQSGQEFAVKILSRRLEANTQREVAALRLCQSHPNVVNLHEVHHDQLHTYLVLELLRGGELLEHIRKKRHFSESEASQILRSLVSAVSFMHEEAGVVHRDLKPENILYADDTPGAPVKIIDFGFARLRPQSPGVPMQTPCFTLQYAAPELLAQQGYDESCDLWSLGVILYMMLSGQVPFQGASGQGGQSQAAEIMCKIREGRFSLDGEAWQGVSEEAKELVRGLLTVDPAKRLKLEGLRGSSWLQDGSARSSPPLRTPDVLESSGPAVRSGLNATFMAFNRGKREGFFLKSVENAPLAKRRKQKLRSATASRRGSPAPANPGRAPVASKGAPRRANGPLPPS
Chain of Calcium/calmodulin-dependent protein kinase kinase 2 (Homo sapiens) (Q96RR4 2-588 limits assumed): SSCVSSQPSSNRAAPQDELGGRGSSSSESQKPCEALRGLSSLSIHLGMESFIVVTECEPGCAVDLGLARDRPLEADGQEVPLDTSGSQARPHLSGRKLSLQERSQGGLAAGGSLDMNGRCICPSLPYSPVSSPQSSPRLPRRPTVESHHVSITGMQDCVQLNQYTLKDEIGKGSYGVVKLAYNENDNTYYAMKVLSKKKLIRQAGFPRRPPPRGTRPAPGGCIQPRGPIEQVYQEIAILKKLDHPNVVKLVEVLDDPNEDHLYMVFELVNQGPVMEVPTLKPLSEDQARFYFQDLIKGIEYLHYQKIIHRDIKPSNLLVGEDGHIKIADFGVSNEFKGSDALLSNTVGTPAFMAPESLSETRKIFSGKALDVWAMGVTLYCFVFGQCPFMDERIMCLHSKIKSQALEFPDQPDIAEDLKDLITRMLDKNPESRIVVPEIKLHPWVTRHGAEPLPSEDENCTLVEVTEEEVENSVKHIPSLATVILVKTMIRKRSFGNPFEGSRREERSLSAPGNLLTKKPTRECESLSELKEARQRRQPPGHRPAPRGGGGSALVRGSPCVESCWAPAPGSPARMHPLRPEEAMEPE

In the case of `C[C@@]1(C(=O)Nc2ccc(F)nc2)CCCN1c1nc(Nc2cc(C3CC3)n[nH]2)c2cccn2n1`, the inhibition [1] is reported as -4.49%, the inhibition [2] is reported as 1.5% and the inhibition [3] is reported as -5.95%. The inhibition [4] was -3.34%.
`C[C@]1(O)C[C@@H](c2nc(-c3ccc4ccc(-c5ccccc5)nc4c3)c3c(N)nccn32)C1` was tested, and the inhibition [5] was -8.62%, the inhibition [6] was -7.69% and the inhibition [7] was -1.08%. It also gave an inhibition [8] of -7.65%, an inhibition [9] of -6.1% and an inhibition [10] of 3.89%. It also gave an inhibition [11] of -0.1%, an inhibition [12] of -0.98% and an inhibition [13] of 10.3%. The inhibition [14] was 1.59%, the inhibition [15] was 28% and the inhibition [16] was 2.43%. It also gave an inhibition [17] of -2.87% and an inhibition [18] of 7.82%.
